Reference: patent publication US20240199688A1, “METHODS FOR REDUCING LIPASE ACTIVITY” (Regeneron Pharmaceuticals, Inc., priority 2022, published 2024)

Test system: polysorbate degrading activity
Assay: Reduction of polysorbate degrading activity by lipase inhibitors
Assay type: biochemical, CHO
[1] = 0.001 mM lipase inhibitor, relative to control without inhibitor

O=C(Nc1cccc(-c2ccccc2)c1)OC1CCCCC1 [URB602, [1-1′-biphenyl]-3-t1-carbamicacid cyclohexyl ester]
Percent reduction in polysorbate 20 degradation [1]: 0% | Percent reduction in polysorbate 20 degradation (0.01 mM lipase inhibitor): 20% | Percent reduction in polysorbate 20 degradation (0.1 mM lipase inhibitor): 0%

CCCCCCCCCCC[C@@H](C[C@@H]1OC(=O)[C@H]1CCCCCC)OC(=O)[C@H](CC(C)C)NC=O [Orlistat, orlistat]
Percent reduction in polysorbate 20 degradation [1]: 0% | Percent reduction in polysorbate 20 degradation (0.01 mM lipase inhibitor): 27.8%^ | Percent reduction in polysorbate 20 degradation (0.1 mM lipase inhibitor): 67%

diethylumbelliferyl phosphate
Percent reduction in polysorbate 20 degradation [1]: 48% | Percent reduction in polysorbate 20 degradation (0.01 mM lipase inhibitor): 100% | Percent reduction in polysorbate 20 degradation (0.1 mM lipase inhibitor): >95%

CCCCOc1ccccc1B(O)O [2-Butoxyphenyl boronic acid, 2-butoxyphenylboronic acid]
Percent reduction in polysorbate 20 degradation [1]: 0% | Percent reduction in polysorbate 20 degradation (0.01 mM lipase inhibitor): 28% | Percent reduction in polysorbate 20 degradation (0.1 mM lipase inhibitor): 0%
